Results published in BindingDB's records for PubMed 7520908 (Janssen Research Foundation, 1994).
Several values for one entry are separate records, joined by “and”; a condition that tells them apart may be missing. Identical values can stand only once.

Tests used:
[1] = biological target: 5-hydroxytryptamine receptor 1B (Rattus norvegicus, UniProt P28564)
[2] = biological target: T1, 5-hydroxytryptamine receptor 2C (Sus scrofa, UniProt G7ZKZ7)
T1 sequence (G7ZKZ7 whole entry): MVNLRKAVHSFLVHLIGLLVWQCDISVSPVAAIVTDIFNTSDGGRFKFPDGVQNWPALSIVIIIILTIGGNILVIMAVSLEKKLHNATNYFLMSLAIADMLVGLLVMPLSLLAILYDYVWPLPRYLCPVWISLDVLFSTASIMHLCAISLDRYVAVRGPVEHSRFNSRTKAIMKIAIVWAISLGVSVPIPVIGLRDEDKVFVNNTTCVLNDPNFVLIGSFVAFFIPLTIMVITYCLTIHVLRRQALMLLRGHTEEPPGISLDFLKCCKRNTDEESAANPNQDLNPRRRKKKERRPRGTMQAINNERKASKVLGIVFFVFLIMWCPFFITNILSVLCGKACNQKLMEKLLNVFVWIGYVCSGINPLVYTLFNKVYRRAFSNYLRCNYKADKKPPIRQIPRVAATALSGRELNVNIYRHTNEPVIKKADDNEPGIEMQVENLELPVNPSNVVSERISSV

D(3) dopamine receptor = D(3) dopamine receptor (Rattus norvegicus, UniProt P19020)
Chain of D(3) dopamine receptor (P19020 whole entry): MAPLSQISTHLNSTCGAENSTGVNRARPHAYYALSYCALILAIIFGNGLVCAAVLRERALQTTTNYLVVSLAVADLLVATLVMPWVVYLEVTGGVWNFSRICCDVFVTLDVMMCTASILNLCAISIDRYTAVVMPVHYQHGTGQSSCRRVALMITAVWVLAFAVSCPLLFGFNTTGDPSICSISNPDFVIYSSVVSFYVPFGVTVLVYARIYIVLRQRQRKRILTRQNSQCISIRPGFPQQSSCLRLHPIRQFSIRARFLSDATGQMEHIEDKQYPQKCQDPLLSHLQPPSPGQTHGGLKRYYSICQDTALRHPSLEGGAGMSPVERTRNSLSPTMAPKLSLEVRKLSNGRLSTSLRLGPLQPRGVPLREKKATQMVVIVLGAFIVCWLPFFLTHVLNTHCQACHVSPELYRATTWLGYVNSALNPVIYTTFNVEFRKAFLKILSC

[3] = biological target: 5-hydroxytryptamine receptor 1B (Homo sapiens, UniProt P28222)
Chain of 5-hydroxytryptamine receptor 1B (Homo sapiens, UniProt P28222) (P28222 whole entry): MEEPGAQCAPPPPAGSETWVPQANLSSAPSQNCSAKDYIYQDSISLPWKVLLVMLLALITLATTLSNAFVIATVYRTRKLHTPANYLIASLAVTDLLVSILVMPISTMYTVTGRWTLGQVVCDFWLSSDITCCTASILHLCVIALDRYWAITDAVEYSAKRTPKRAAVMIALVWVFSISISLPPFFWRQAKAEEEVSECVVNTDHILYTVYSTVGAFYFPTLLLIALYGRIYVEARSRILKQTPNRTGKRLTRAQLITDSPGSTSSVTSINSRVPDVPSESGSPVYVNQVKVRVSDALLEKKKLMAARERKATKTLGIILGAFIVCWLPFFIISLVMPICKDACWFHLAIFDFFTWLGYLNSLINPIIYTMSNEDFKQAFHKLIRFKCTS

D(2) dopamine receptor = D(2) dopamine receptor (Rattus norvegicus, UniProt P61169)
Chain of D(2) dopamine receptor (P61169 whole entry): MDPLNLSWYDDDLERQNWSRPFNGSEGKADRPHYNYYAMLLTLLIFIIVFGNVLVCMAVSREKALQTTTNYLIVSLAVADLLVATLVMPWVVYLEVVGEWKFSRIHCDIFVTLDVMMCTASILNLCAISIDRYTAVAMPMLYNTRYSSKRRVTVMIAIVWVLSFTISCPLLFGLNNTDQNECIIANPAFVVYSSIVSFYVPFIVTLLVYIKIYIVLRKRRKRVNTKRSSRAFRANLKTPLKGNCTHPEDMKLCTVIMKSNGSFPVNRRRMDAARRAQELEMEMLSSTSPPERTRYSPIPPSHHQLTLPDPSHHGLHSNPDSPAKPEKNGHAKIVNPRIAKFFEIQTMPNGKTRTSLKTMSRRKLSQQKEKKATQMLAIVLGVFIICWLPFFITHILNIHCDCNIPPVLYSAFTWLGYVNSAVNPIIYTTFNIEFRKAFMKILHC

D(1A) dopamine receptor = D(1A) dopamine receptor (Rattus norvegicus, UniProt P18901)
Chain of D(1A) dopamine receptor (P18901 whole entry): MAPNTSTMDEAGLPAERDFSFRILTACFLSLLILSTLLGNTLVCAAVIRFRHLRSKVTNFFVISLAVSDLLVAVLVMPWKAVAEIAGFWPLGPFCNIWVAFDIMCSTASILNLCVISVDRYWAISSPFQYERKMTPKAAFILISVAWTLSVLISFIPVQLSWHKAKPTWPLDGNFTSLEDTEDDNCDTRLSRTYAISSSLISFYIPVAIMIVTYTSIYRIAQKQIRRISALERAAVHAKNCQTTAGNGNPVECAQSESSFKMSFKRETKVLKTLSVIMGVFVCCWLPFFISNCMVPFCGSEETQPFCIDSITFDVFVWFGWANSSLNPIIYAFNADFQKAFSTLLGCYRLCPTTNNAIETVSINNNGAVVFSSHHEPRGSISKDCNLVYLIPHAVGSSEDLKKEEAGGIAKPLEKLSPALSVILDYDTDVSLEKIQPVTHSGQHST

[4] = biological target: 5-hydroxytryptamine receptor 2A (Rattus norvegicus, UniProt P14842)
Chain of 5-hydroxytryptamine receptor 2A (P14842 whole entry): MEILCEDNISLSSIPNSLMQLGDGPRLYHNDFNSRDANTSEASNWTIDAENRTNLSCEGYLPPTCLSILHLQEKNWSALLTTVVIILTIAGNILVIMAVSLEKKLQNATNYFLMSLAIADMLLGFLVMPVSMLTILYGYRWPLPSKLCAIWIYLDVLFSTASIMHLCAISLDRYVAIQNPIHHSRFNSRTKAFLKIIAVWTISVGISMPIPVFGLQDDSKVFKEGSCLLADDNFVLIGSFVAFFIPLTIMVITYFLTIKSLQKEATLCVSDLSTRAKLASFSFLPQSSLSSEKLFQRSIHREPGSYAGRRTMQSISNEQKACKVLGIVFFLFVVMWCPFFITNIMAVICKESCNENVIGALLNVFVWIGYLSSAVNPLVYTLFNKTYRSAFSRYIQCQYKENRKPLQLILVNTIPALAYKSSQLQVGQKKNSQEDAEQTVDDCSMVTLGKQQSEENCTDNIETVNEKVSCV

[5] = biological target: T2, 5-hydroxytryptamine receptor 3A (Mus musculus, UniProt P23979)
T2 sequence (P23979 whole entry): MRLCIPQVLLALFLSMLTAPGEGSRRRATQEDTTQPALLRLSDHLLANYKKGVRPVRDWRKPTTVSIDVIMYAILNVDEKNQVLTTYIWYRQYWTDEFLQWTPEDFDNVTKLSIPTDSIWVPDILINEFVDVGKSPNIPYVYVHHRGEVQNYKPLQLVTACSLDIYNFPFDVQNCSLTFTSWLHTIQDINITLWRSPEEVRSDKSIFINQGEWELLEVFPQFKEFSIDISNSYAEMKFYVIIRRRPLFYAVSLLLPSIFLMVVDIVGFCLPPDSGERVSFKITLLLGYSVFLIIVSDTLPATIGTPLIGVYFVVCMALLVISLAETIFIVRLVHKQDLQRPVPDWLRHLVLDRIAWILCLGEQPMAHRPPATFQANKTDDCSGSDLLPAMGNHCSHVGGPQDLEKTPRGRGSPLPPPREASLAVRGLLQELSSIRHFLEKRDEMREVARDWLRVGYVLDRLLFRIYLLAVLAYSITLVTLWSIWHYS

[6] = biological target: 5-hydroxytryptamine 1D receptor (Bos taurus, UniProt Q8MI13)
Chain of 5-hydroxytryptamine 1D receptor (Q8MI13 whole entry): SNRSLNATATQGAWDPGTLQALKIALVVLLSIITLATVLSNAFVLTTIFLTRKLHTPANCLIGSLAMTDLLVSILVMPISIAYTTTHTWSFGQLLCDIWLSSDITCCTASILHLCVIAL

Chain of 5-hydroxytryptamine receptor 1B (Rattus norvegicus, UniProt P28564) (P28564 whole entry): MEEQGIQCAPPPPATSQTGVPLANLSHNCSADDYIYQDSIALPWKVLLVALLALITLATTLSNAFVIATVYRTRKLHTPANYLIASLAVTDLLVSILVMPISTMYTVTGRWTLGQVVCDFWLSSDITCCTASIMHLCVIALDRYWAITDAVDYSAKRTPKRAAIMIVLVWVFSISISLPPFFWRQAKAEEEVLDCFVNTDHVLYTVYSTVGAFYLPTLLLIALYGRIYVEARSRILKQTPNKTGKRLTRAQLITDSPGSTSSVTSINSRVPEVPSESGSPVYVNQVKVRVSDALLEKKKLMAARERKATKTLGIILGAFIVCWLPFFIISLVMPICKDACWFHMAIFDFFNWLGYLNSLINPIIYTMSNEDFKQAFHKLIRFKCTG

Ki [2] [nM]	Ki (D(3) dopamine receptor) [nM]	Ki [3] [nM]	Ki (D(2) dopamine receptor)	Ki (D(1A) dopamine receptor) [nM]	Ki [4] [nM]	Ki [5] [nM]	Ki [6] [nM]	SMILES	Ki [1] [nM]
47	13	23	3.5 nM and 3.9 nM and 6.7 nM and 4.6 nM	510	0.22	> 10000	117	Cc1nc2n(c(=O)c1CCN1CCC(c3noc4cc(F)ccc34)CC1)CCCC2O (stereo not given) [9-OH-risperidone]	3500
								Cc1nc2n(c(=O)c1CCN1CCC(c3noc4cc(F)ccc34)CC1)CCCC2 [3-{2-[4-(6-Fluoro-benzo[d]isoxazol-3-yl)-piperidin-1-yl]-ethyl}-2-methyl-6,7,8,9-tetrahydro-pyrido[1,2-a]pyrimidin-4-one(risperidone)]	4000
